PubChem BioAssay AID330 (DTP/NCI, 2004)
Several values for one entry are separate records, joined by “and”; a condition that tells them apart may be missing. Equal entries are not always repeated. Toxic doses and inconclusive results are not listed.

Tested on: P388 leukemia ip, CD2F1 mice, survival T/C
Experiment: NCI In Vivo Anticancer Drug Screen. Data for tumor model P388 Leukemia (intraperitoneal) in CD2F1 (CDF1) mice
Conditions: endpoint: median survival time, higher = longer survival
How it was run: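 Mice carrying the transplanted tumor received test compound or vehicle. Survival was recorded in each group, and the value is the treated-group measurement divided by that of the vehicle-treated control group.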

[1] = dose: 50.0 mg/kg/injection, schedule: Q01DX005 (ip), vehicle: Klucel (hydroxypropylcellulose) (HPC)
[2] = dose: 100.0 mg/kg/injection, schedule: Q01DX005 (ip), vehicle: Klucel (hydroxypropylcellulose) (HPC)
[3] = dose: 200.0 mg/kg/injection, schedule: Q01DX005 (ip), vehicle: Klucel (hydroxypropylcellulose) (HPC)
[4] = dose: 50.0 mg/kg/injection, schedule: Q01DX009 (ip), vehicle: saline
[5] = dose: 100.0 mg/kg/injection, schedule: Q01DX009 (ip), vehicle: saline
[6] = dose: 200.0 mg/kg/injection, schedule: Q01DX009 (ip), vehicle: saline
[7] = dose: 60.0 mg/kg/injection, schedule: Q01DX005 (ip), vehicle: Klucel (hydroxypropylcellulose) (HPC)
[8] = dose: 120.0 mg/kg/injection, schedule: Q01DX005 (ip), vehicle: Klucel (hydroxypropylcellulose) (HPC)
[9] = dose: 240.0 mg/kg/injection, schedule: Q01DX005 (ip), vehicle: Klucel (hydroxypropylcellulose) (HPC)

## CC(=O)OCC1OC(n2cnc3c(Cl)nc(Cl)nc32)CC(OC(C)=O)C1OC(C)=O (centres undefined)
[1]
  T/C: 93 % of control
[2]
  T/C: 99 % of control
[3]
  T/C: 91 % of control

## COc1cccc(Cc2ccncc2)c1OC
dose: 12.5 mg/kg/injection, schedule: Q01DX009 (ip), vehicle: water
  T/C: 101 % of control
dose: 25.0 mg/kg/injection, schedule: Q01DX009 (ip), vehicle: water
  T/C: 100 % of control
dose: 50.0 mg/kg/injection, schedule: Q01DX009 (ip), vehicle: water
  T/C: 100 % of control
dose: 100.0 mg/kg/injection, schedule: Q01DX009 (ip), vehicle: water
  T/C: 102 % of control
dose: 200.0 mg/kg/injection, schedule: Q01DX009 (ip), vehicle: water
  T/C: 103 % of control

## NCCc1ccc([N+](=O)[O-])cc1
[4]
  T/C: 104 % of control and 96 % of control
[5]
  T/C: 98 % of control and 105 % of control

## Cc1ccccc1[B-]12OCC[N+]1(CNC(=O)C1=C(O)C3(O)C(=O)C4=C(O)c5c(O)cccc5C(C)(O)C4CC3C(N(C)C)C1=O)CCO2 (centres undefined)
[1]
  T/C: 110 % of control
[2]
  T/C: 115 % of control
[3]
  T/C: 108 % of control

## NS(=O)(=O)c1ccc(C(=O)O)cc1
dose: 25.0 mg/kg/injection, schedule: Q04DX003 (ip), vehicle: saline with Tween-80
  T/C: 101 % of control
dose: 50.0 mg/kg/injection, schedule: Q04DX003 (ip), vehicle: saline with Tween-80
  T/C: 94 % of control
dose: 100.0 mg/kg/injection, schedule: Q04DX003 (ip), vehicle: saline with Tween-80
  T/C: 100 % of control
dose: 200.0 mg/kg/injection, schedule: Q04DX003 (ip), vehicle: saline with Tween-80
  T/C: 103 % of control

## CN(C)C(=O)Oc1ccc(OC(=O)N(C)C)c2ccccc12
dose: 6.25 mg/kg/injection, schedule: Q01DX001 (ip), vehicle: Klucel (hydroxypropylcellulose) (HPC)
  T/C: 104 % of control
dose: 12.5 mg/kg/injection, schedule: Q01DX001 (ip), vehicle: Klucel (hydroxypropylcellulose) (HPC)
  T/C: 104 % of control
dose: 25.0 mg/kg/injection, schedule: Q01DX001 (ip), vehicle: Klucel (hydroxypropylcellulose) (HPC)
  T/C: 99 % of control and 100 % of control

## CCCCN(CCCC)C(=N)c1c(OC)cccc1OC
dose: 0.78 mg/kg/injection, schedule: Q01DX005 (ip), vehicle: saline
  T/C: 104 % of control
dose: 1.56 mg/kg/injection, schedule: Q01DX005 (ip), vehicle: saline
  T/C: 99 % of control
dose: 3.12 mg/kg/injection, schedule: Q01DX005 (ip), vehicle: saline
  T/C: 96 % of control

## CCN1C=C/C(=C/c2cc3scc(-c4ccccc4)[n+]3c3ccccc23)c2ccccc21
dose: 0.32 mg/kg/injection, schedule: Q04DX003 (ip), vehicle: saline sonified
  T/C: 109 % of control

## COc1ccc(CSC(=S)Nc2cccc(C(F)(F)F)c2)cc1
[4]
  T/C: 97 % of control
dose: 50.0 mg/kg/injection, schedule: Q01DX009 (ip), vehicle: suspension in saline
  T/C: 90 % of control
[5]
  T/C: 101 % of control
[6]
  T/C: 118 % of control
dose: 200.0 mg/kg/injection, schedule: Q01DX009 (ip), vehicle: suspension in saline
  T/C: 99 % of control

## CC1=C(C)C(=O)OC(C(C)(O)C2(O)CC=C3C4CC(O)C5(O)C(O)C=CC(=O)C5(C)C4CCC32C)C1 (centres undefined)
dose: 7.75 mg/kg/injection, schedule: Q01DX005 (ip), vehicle: Klucel (hydroxypropylcellulose) (HPC)
  T/C: 105 % of control
dose: 15.5 mg/kg/injection, schedule: Q01DX005 (ip), vehicle: Klucel (hydroxypropylcellulose) (HPC)
  T/C: 105 % of control
dose: 31.0 mg/kg/injection, schedule: Q01DX005 (ip), vehicle: Klucel (hydroxypropylcellulose) (HPC)
  T/C: 106 % of control

## C=C1C(O)C2OC3(CCC(/C=C/C(C)C4CC5(C)SC5C5(OC(CC(C)(O)C(=O)O)CCC5O)O4)O3)CCC2OC1C(O)CC(C)C1OC2(CCCCO2)CCC1C (centres undefined)
dose: 1.87 micrograms/kg/injection, schedule: Q01DX005 (ip), vehicle: saline + alcohol
  T/C: 102 % of control and 103 % of control
dose: 3.75 micrograms/kg/injection, schedule: Q01DX005 (ip), vehicle: saline + alcohol
  T/C: 103 % of control and 120 % of control and 93 % of control
dose: 7.5 micrograms/kg/injection, schedule: Q01DX005 (ip), vehicle: saline + alcohol
  T/C: 100 % of control and 103 % of control
dose: 15.0 micrograms/kg/injection, schedule: Q01DX005 (ip), vehicle: saline + alcohol
  T/C: 111 % of control

## O=C(O)c1ccccc1Nc1c(C(=O)O)cnc2cc3c(cc12)OCO3
[7]
  T/C: 101 % of control
[8]
  T/C: 99 % of control
[9]
  T/C: 88 % of control

## Cc1ccc(S(=O)(=O)C23N=NC(C)(C)C2C2CCC3C2)cc1 (centres undefined)
[7]
  T/C: 102 % of control
[8]
  T/C: 104 % of control
[9]
  T/C: 102 % of control

## CCc1cc(C2C(=O)c3ccccc3C2=O)cc(CC)c1O
dose: 100.0 mg/kg/injection, schedule: Q04DX002 (ip), vehicle: saline
  T/C: 107 % of control
dose: 200.0 mg/kg/injection, schedule: Q04DX002 (ip), vehicle: saline
  T/C: 105 % of control
dose: 400.0 mg/kg/injection, schedule: Q04DX002 (ip), vehicle: saline
  T/C: 110 % of control

## O=C1c2ccccc2CCCC12OC2c1ccccn1 (centres undefined)
dose: 25.0 mg/kg/injection, schedule: Q01DX009 (ip), vehicle: Klucel (hydroxypropylcellulose) (HPC)
  T/C: 98 % of control
dose: 50.0 mg/kg/injection, schedule: Q01DX009 (ip), vehicle: Klucel (hydroxypropylcellulose) (HPC)
  T/C: 106 % of control
dose: 100.0 mg/kg/injection, schedule: Q01DX009 (ip), vehicle: Klucel (hydroxypropylcellulose) (HPC)
  T/C: 98 % of control

## CC(/C=C/C=C/C=C/C=C/C=C/C(O)=C1/C(=O)C(CCC(=O)O)N(C)C1=O)=C\C(C)C(OC1CC(O)C(O)C(C)O1)C(C)C (centres undefined)
dose: 1.0 mg/kg/injection, schedule: Q01DX005 (ip), vehicle: water
  T/C: 121 % of control
dose: 2.0 mg/kg/injection, schedule: Q01DX005 (ip), vehicle: water
  T/C: 165 % of control
dose: 4.0 mg/kg/injection, schedule: Q01DX005 (ip), vehicle: water
  T/C: 112 % of control and 115 % of control
dose: 8.0 mg/kg/injection, schedule: Q01DX005 (ip), vehicle: water
  T/C: 158 % of control and 163 % of control

## CCC1(C(C)C)NC(=O)NC1=O (centres undefined)
[1]
  T/C: 106 % of control
[2]
  T/C: 104 % of control
[3]
  T/C: 106 % of control

## Cc1ccccc1Nc1ccnc2c1ccc1ccccc12
dose: 50.0 mg/kg/injection, schedule: Q01DX005 (ip), vehicle: saline with Tween-80
  T/C: 88 % of control
dose: 100.0 mg/kg/injection, schedule: Q01DX005 (ip), vehicle: saline with Tween-80
  T/C: 92 % of control
dose: 200.0 mg/kg/injection, schedule: Q01DX005 (ip), vehicle: saline with Tween-80
  T/C: 88 % of control

## CNC(=S)N/N=C/c1nc2ccccc2c(=O)n1-c1ccc(Cl)cc1
dose: 100.0 mg/kg/injection, schedule: Q01DX001 (ip), vehicle: saline with Tween-80
  T/C: 102 % of control
dose: 200.0 mg/kg/injection, schedule: Q01DX001 (ip), vehicle: saline with Tween-80
  T/C: 98 % of control
dose: 400.0 mg/kg/injection, schedule: Q01DX001 (ip), vehicle: saline with Tween-80
  T/C: 92 % of control

## COc1ccc(C(O)(C2CC2)C2CC2)cc1
dose: 100.0 mg/kg/injection, schedule: Q01DX001 (ip), vehicle: Klucel (hydroxypropylcellulose) (HPC)
  T/C: 98 % of control
dose: 200.0 mg/kg/injection, schedule: Q01DX001 (ip), vehicle: Klucel (hydroxypropylcellulose) (HPC)
  T/C: 94 % of control
dose: 400.0 mg/kg/injection, schedule: Q01DX001 (ip), vehicle: Klucel (hydroxypropylcellulose) (HPC)
  T/C: 98 % of control

## O=S1(=O)CCN(Cc2cccnc2)CC1
[4]
  T/C: 94 % of control
[5]
  T/C: 98 % of control
[6]
  T/C: 91 % of control

## CN1CCCC2Cc3ccccc3CC21 (centres undefined)
dose: 6.25 mg/kg/injection, schedule: Q04DX002 (ip), vehicle: Klucel (hydroxypropylcellulose) (HPC)
  T/C: 97 % of control
dose: 12.5 mg/kg/injection, schedule: Q04DX002 (ip), vehicle: Klucel (hydroxypropylcellulose) (HPC)
  T/C: 102 % of control
dose: 25.0 mg/kg/injection, schedule: Q04DX002 (ip), vehicle: Klucel (hydroxypropylcellulose) (HPC)
  T/C: 104 % of control
dose: 100.0 mg/kg/injection, schedule: Q04DX002 (ip), vehicle: Klucel (hydroxypropylcellulose) (HPC)
  T/C: 101 % of control

## C=CCOc1ccncc1
dose: 12.5 mg/kg/injection, schedule: Q01DX009 (ip), vehicle: saline with Tween-80
  T/C: 100 % of control
dose: 25.0 mg/kg/injection, schedule: Q01DX009 (ip), vehicle: saline with Tween-80
  T/C: 95 % of control
dose: 50.0 mg/kg/injection, schedule: Q01DX009 (ip), vehicle: saline with Tween-80
  T/C: 90 % of control
